Results reported in patent US20190160037A1, “METHOD OF TREATING, REDUCING, PREVENTING DETERIORATION OR IMPROVING VISUAL FUNCTION AFTER OPTIC NEUROPATHY” (TZU CHI UNIVERSITY, priority 2017, published 2019).

How the values were obtained:
COX-2 = COX-2 immunoblot in the retina after ON crush; format: in vivo, Wistar rats; details: two weeks after ON crush, ratio to GAPDH, vs PBS-treated
Source text: (§1) An ON crush injury was induced as described in the previous report. (Chien J Y, Sheu J H, Wen Z H, Tsai R K, Huang S P. Neuroprotective effect of 4-(Phenylsulfanyl)butan-2-one on optic nerve crush model in rats. Experimental eye research. 2016; 143:148-57. Epub 2015/10/17). Briefly, rats were general anesthetized and eye were further anesthetized with topical 0.5% Alcaine eye drops. The conjunctiva was cut with Vannas scissors to expose the optic nerve. Care was taken to avoid damaging the small vessels around the ON. Injury was introduced by crushing the ON 2 mm posterior to the globe with a vascular clip (60 g micro-vascular clip, World Precision Instruments, FL, USA) for 30 seconds. After the surgery, Tobradex eye ointment (Alcon, Puurs, Belgium) was administered. The rats were kept under supervision and on electric heating pads at 37° C. for recovery. A sham operation was performed by exposing the ON in the same way but not crushed. […]
(§2) Total retinal protein extracts from rat retina were prepared using modified radioimmunoprecipitation (RIPA) buffer. The protein concentrations were determined using the BCA (bicinchoninic acid) protein assay kit (Pierce). […] The proteins on the membranes were detected using an enhanced chemiluminescence (ECL) system (Amersham Biosciences). […]

GFAP = GFAP IHC and immunoblot in the retina after ON crush; format: in vivo, Wistar rats; details: 2 weeks after ON crush, vs ON-crushed, PBS-treated group, p<0.05
Source text: as §1, with “seconds.” for “seconds. After the surgery, Tobradex eye ointment (Alcon, Puurs, Belgium) was administered. The rats were kept under supervision and on electric heating pads at 37° C. for recovery. A sham operation was performed by exposing the ON in the same way but not crushed.”
(§3) IHC of ED1 (CD68, a marker of macrophage/microglia) in the ONs and IHC of GFAP in the retina using monoclonal antibody (ED1, 1:50; AbD Serotec, Oxford, UK) or polyclonal antibody (GFAP, 1:200; Cambridge, Mass., USA) was performed. […] For comparison, ED1 positive cells were counted in six HPF at the lesion site of ON (n=6 in each group).
as §2

RAW264.7 macrophages = details: through inhibiting the activation of NFκB-p65; cited from earlier work
[1] = test system: hippocampal dentate gyrus region; details: in vivo studies; cited from earlier work
Brn-3a+ cells (RGCs) = test: Brn3a-labeled flat-mounted retinas after ON crush; format: in vivo, Wistar rats; details: for densities of Brn-3a+ cells in mid-peripheral retina / densities of Brn-3a+ cells in the central retina: after ON crush, 15 mg/Kg once by subcutaneous injection, 15 mg/kg
Source text: (§4) An ON crush injury was induced as described in the previous report. (Chien J Y, Sheu J H, Wen Z H, Tsai R K, Huang S P. Neuroprotective effect of 4-(Phenylsulfanyl)butan-2-one on optic nerve crush model in rats. Experimental eye research. 2016; 143:148-57. Epub 2015/10/17). Briefly, rats were general anesthetized and eye were further anesthetized with topical 0.5% Alcaine eye drops. The conjunctiva was cut with Vannas scissors to expose the optic nerve. Care was taken to avoid damaging the small vessels around the ON. Injury was introduced by crushing the ON 2 mm posterior to the globe with a vascular clip (60 g micro-vascular clip, World Precision Instruments, FL, USA) for 30 seconds. After the surgery, Tobradex eye ointment (Alcon, Puurs, Belgium) was administered. The rats were kept under supervision and on electric heating pads at 37° C. for recovery. A sham operation was performed by exposing the ON in the same way but not crushed. Oroxyiln A (15 mg/Kg in 0.2 ml phosphate-buffered saline) or phosphate-buffered saline (PBS control) was immediately administered after ON crush once by subcutaneous injection.
Animals were euthanized and eyes were enucleated and fixed in 10% formalin for 1 hour. Retina flat mounts were subjected to immunofluorescent staining for Brn-3a as previously described. (Tual-Chalot S, Allinson K R, Fruttiger M, Arthur H M. Whole Mount Immunofluorescent Staining of the Neonatal Mouse Retina to Investigate Angiogenesis In vivo. 2013; (77):e50546). In brief, flat mounts were washed with PBS and blocked with blocking buffer (PBS with 0.3% Triton-X and 5% Fetal Bovine Serum) for 1 hour. Flat mounts were then incubated with primary monoclonal antibody Brn-3a (1:200; Santa Cruz, Calif., USA) for 24 hours, washed with PBS and treated with secondary antibody Alexa flour 488 (1:400; Life Technologies, OR, USA) and incubated overnight. 8 to 10 microphotographs were captured for every retina flat mount covering central and mid peripheral region.

[2] = test system: ED1 (CD68, a marker of macrophage/microglia); test: IHC of ED1 in the ONs after ON crush; format: in vivo, Wistar rats; details: 2 weeks after ON crush; 15 mg/Kg once by subcutaneous injection; n=6
Source text: as §1, §3

microglia = details: cited from earlier work
[3] = test system: rat model subject to ON crush; test: Flash visual-evoked potentials (FVEPs) after ON crush; format: in vivo, Wistar rats; details: 2 weeks after ON crush; 15 mg/Kg once by subcutaneous injection; n=6
Source text: as §4
For the functional evaluation of the ON, FVEPs were recorded 2 weeks after ON crush in 18 experimental rats. The groups in assessing FVEP were masked. […]

[4] = test system: apoptotic cells in the RGC layer; test: TUNEL assay in the RGC layer of the retina after ON crush; format: in vivo, Wistar rats; details: 15 mg/Kg once by subcutaneous injection, n=6
Source text: as §1
To ensure the use of equivalent fields for comparison, all retinal frozen sections were prepared with retinas at 1-2 mm distance from the ONH. […] The TUNEL positive cells in the RGC layer of each sample were counted in ten high powered fields (HPF, ×400 magnification), and three sections per eye were averaged. […]

iNOS = iNOS immunoblot in the retina after ON crush; format: in vivo, Wistar rats; details: two weeks after ON crush, ratio to GAPDH, vs PBS-treated
Source text: as §1, §2

RGCs = test: Retrograde Fluorogold labeling of RGCs, RGC density after ON crush; format: in vivo, Wistar rats
Source text: as §4
Retrograde labeling of RGCs with Fluorogold (FG) and densities of RGCs. The detailed procedures have been described in the previous reports. (Chien J Y, Sheu J H, Wen Z H, Tsai R K, Huang S P. Neuroprotective effect of 4-(Phenylsulfanyl)butan-2-one on optic nerve crush model in rats. Experimental eye research. 2016; 143:148-57. Epub 2015/10/17; Tsai R K, Chang C H, Wang H Z. Neuroprotective effects of recombinant human granulocyte colony-stimulating factor (G-CSF) in neurodegeneration after optic nerve crush in rats. Experimental eye research. 2008; 87(3):242-50. Epub 2008/07/08). Briefly, retrograde labeling of RGCs with FG was performed one week before sacrificing to avoid overcounting RGCs by mixing labeled RGCs with dye-engulfed macrophages and microglia. (Huang T L, Huang S P, Chang C H, Lin K H, Sheu M M, Tsai R K. Factors influencing the retrograde labeling of retinal ganglion cells with fluorogold in an animal optic nerve crush model. Ophthalmic research. 2014; 51(4):173-8. Epub 2014/03/26). The rats were anesthetized using a ketamine (100 mg/kg) and xylazine (10 mg/kg) mixture, and then placed in a stereotactic apparatus (Stoelting, Wood Dale, Ill., USA). […] One week after labeling, the eyeballs were harvested after euthanasia of the animals. The eyeballs were placed in 10% formalin and the whole retina was then carefully dissected, flattened. The retina was examined with a 400 epi-fluorescence microscope (Axioskop; Carl Zeiss Meditec. Inc., Jena, Germany) equipped with a filter set (excitation filter: 350-400 nm; barrier filter: 515 nm), as well as a digital camera (Axiocam MRm) and software (Axiovision 4.0). The retinas were examined for RGCs at a distance of 1 or 3 mm ([…] from the center to provide the central and mid-peripheral RGC densities respectively. Eight randomly chosen areas (38250 μm2; […]) in the central (about 40% of the central area) and mid-peripheral (about 30% of the mid-periphery) regions of each retina (n=6 per group) were counted. The averages of these areas were taken as the mean density of RGCs per retina. RGC survival percentage was defined as the number of RGCs in each treatment group divided by the number of RGCs in the sham-operated retina, multiplied by 100.

[5] = compared to the PBS-treated group
[6] = relative to sham-operated retina, two weeks after ON crush
[7] = two weeks after ON crush, 15 mg/Kg once by subcutaneous injection, n=6

COc1c(O)cc2oc(-c3ccccc3)cc(=O)c2c1O [oroxylin A, 5,7-dihydroxy-6-methoxyflavone]
expression level of COX-2 in the retina (COX-2): reducing the expression level
expression level of COX-2 in the retina (COX-2; listed as Oroxylin A): suppressed the increase
GFAP level in the retina (retinal gliosis) (GFAP): significantly reduced
GFAP level in the retina (retinal gliosis) (GFAP; listed as Oroxylin A): attenuated retinal gliosis
LPS-induced iNOS and cyclooxygenase-2 expression (RAW264.7 macrophages): suppresses
adult neurogenesis in the hippocampal dentate gyrus region [1]: stimulated
amyloid (Aβ)-induced memory impairment [1]: ameliorated
cerebral hypoperfusion-induced neuronal damage [1]: prevented
densities of Brn-3a+ cells in mid-peripheral retina (Brn-3a+ cells (RGCs)): 801±199 /mm^2
densities of Brn-3a+ cells in the central retina (Brn-3a+ cells (RGCs)): 847±367 /mm^2
densities of Brn-3a+ cells in mid-peripheral retina (Brn-3a+ cells (RGCs); listed as oroxylin-A): 800±199 /mm^2
densities of Brn-3a+ cells in the central retina (Brn-3a+ cells (RGCs); listed as oroxylin-A): 894±367 /mm^2
RGC survival rate increase vs PBS-treated group, central retina (Brn-3a) (Brn-3a+ cells (RGCs); [5]): approximately 30.4%
RGC survival rate increase vs PBS-treated group, mid-peripheral retina (Brn-3a) (Brn-3a+ cells (RGCs); [5]): ~29.7%
RGC survival, central retina (Brn-3a) (Brn-3a+ cells (RGCs); relative to sham-operated eyes): 64.9 % survival
RGC survival, mid-peripheral retina (Brn-3a) (Brn-3a+ cells (RGCs); relative to sham-operated eyes): 73 % survival
ED1 positive cells at the ON lesion site [2]: 33.5±16.3 cells/HPF
LPS-induced NO production (microglia): strong inhibitory activities
latency of the P1 wave in FVEP [3]: 100 ± 12 ms
TUNEL positive cells in the RGC layer [4]: 4.0±2.4 positive cells/HPG
expression level of iNOS in the retina (iNOS): reducing the expression level
expression level of iNOS in the retina (iNOS; listed as Oroxylin A): suppressed the increase
RGC survival rate increase vs PBS-treated group, central retina (FG labeling) (RGCs; [5]): approximately 32.7%
RGC survival rate increase vs PBS-treated group, mid-peripheral retina (FG labeling) (RGCs; [5]): ~33.6%
RGC survival, central retina (FG labeling) (RGCs; [6]): 52.5 % survival
RGC survival, mid-peripheral retina (FG labeling) (RGCs; [6]): 61.9 % survival
densities of RGCs in mid-peripheral retina (FG labeling) (RGCs; [7]): 960±465 /mm^2
densities of RGCs in the central retina (FG labeling) (RGCs; [7]): 1352±476 /mm^2
